Columns and labels:
KCNQ3/KCNQ4 = target: T1, KCNQ3/KCNQ4 (Homo sapiens, UniProt O43525+P56696); test: Two-electrode voltage clamp of Xenopus oocytes co-injected with KCNQ3 and KCNQ4 cRNA; type: cell-based; conditions: 200 µM Linopirdine in ND98, currents measured at +40 mV, cRNAs 1:1
T1 construct: A complete cDNA was assembled and cloned into the oocyte expression vector PTLN; expressed in transfected cells; host or cells: Xenopus oocytes co-injected with KCNQ3 and KCNQ4 cRNA
T1 sequence (P56696 1-695): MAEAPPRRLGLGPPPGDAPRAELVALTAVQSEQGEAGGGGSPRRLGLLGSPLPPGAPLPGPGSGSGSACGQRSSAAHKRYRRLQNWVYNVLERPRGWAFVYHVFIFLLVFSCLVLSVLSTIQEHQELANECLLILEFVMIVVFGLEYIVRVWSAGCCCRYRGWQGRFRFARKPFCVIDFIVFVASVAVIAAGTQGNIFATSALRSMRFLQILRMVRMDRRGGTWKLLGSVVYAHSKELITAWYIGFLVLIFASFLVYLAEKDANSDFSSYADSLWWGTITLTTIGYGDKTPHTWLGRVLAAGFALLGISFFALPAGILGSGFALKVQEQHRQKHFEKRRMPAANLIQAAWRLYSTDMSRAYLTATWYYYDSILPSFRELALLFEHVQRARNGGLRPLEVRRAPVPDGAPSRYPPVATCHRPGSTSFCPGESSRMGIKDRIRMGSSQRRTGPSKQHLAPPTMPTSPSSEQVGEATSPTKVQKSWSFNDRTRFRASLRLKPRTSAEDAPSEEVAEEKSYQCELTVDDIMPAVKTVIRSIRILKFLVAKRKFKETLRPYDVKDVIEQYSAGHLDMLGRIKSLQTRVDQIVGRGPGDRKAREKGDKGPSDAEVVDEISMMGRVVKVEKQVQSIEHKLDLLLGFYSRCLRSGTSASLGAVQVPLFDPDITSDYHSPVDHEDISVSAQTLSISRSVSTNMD
T1 sequence (O43525 1-872): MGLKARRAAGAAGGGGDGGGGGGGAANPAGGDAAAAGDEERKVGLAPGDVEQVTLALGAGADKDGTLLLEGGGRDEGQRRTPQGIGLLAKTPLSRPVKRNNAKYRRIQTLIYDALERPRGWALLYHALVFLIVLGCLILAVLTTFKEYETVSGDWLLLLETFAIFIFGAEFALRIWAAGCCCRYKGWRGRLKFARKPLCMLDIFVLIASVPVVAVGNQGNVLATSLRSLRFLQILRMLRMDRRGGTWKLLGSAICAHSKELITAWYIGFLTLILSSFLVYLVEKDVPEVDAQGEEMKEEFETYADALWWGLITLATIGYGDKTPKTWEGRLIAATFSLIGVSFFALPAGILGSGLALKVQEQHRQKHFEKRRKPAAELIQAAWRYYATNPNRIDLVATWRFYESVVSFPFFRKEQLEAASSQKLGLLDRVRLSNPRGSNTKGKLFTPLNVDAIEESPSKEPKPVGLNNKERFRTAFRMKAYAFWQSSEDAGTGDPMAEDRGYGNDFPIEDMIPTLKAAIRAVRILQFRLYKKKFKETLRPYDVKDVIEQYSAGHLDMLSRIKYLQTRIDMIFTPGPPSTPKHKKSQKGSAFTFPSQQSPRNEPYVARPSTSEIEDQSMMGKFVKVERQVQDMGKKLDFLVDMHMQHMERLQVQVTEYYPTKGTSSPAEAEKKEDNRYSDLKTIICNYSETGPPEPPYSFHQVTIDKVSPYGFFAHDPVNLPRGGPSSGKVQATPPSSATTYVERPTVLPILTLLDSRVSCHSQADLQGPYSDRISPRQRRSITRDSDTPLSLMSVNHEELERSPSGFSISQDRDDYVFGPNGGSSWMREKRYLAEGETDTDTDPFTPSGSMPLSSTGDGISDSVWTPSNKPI
Procedure: (§1) KCNQ4 was expressed in Xenopus oocytes and its activity was investigated by two-electrode voltage clamping.
(§2) After linearization of the KCNQ4-containing PTLN vector with Hpal, capped cRNA was transcribed in vitro using the mMessage mMachine cRNA synthesis kit (Ambion). Usually 5 - 15 ng of cRNA were injected into Xenopus oocytes previously isolated by manual defolliculation and short collagenase treatment. In co-expression experiments cRNAs were injected at a 1:1 ratio. Oocytes were kept at 17°C in modified Barth's solution (90 mM NaCl, 1 mM KCl, 0.41 mM CaCl2, 0.33 mM Ca(NO3)2, 0.82 mM MgSO4, 10 mM HEPES, 100 U penicillin-100 µg streptomycin/ml, pH 7.6).
(§3) Standard two-electrode voltage-clamp measurements were performed at room temperature 2-4 days after injection using a Turbotec 05 amplifier (npi instruments, Tamm, Germany) and pClamp 5.5 software (Axon Instruments). Currents were usually recorded in ND98 solution (see Table 2). Solutions for Na^+ / K^+ replacement experiments were prepared from an appropriate mixture of solution KD100 (100 mM KCl) and ND100 (100 mM NaCl) to yield the stated concentrations of Na^+ and K^+. Linopirdine (RBI, Natick, MA) was prepared as a 100 mM stock solution in DMSO and added to a final concentration of 200 µM to ND98.

KCNQ2/KCNQ3 channels = conditions: concentration of 200 µM; cited from earlier work
KCNQ4 = target: T2, KCNQ4 (Homo sapiens, UniProt P56696); test: Two-electrode voltage clamp of KCNQ4 currents in Xenopus oocytes; type: cell-based
T2 construct: A complete cDNA was assembled and cloned into the oocyte expression vector PTLN; expressed in transfected cells; host or cells: Xenopus oocytes injected with capped cRNA from the PTLN vector
T2 sequence (P56696 1-695): T1 sequence (P56696 1-695)
Procedure: as §1, §2, §3

inhibition with KCNQ3/KCNQ4 co-expression (KCNQ3/KCNQ4): ≈ 75%
inhibition at 200 µM (KCNQ4; 200 µM Linopirdine in ND98, currents measured at +40 mV, Xenopus oocytes): ~30%
time until steady-state inhibition was reached, KCNQ4 currents (KCNQ4; upon addition of 200 µM Linopirdine): ~ 1 min
Compound: O=C1N(c2ccccc2)c2ccccc2C1(Cc1ccncc1)Cc1ccncc1 [Linopirdine, 1,3-dihydro-1-phenyl-3,3-bis(4-pyridylmethyl)-2H-indol-2-one]
inhibition of KCNQ2/KCNQ3 channels (KCNQ2/KCNQ3 channels): nearly completely inhibits

— patent EP1147134B1, “NOVEL POTASSIUM CHANNELS AND GENES ENCODING THESE POTASSIUM CHANNELS” (NEUROSEARCH A/S, priority 1999, dated 2000)
